In PubChem BioAssay (NCI):
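96-well plates; 48 h exposure; 5 concentrations. Endpoints by linear interpolation between flanking doses. Not reached: highest tested concentration assigned. GI50 marks 50% less growth. TGI marks complete inhibition of growth.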

Tests used:
Experiment in all cases: inhibition of tumour cell growth, NCI panel, 48 h
HL-60(TB) leukemia = tested on: HL-60(TB) leukemia
SR leukemia = tested on: SR leukemia
T-47D breast = tested on: T-47D breast
MALME-3M melanoma = tested on: MALME-3M melanoma
NCI-H23 lung = tested on: NCI-H23 lung
HCT-116 colon = tested on: HCT-116 colon
SK-OV-3 ovarian = tested on: SK-OV-3 ovarian
UACC-62 melanoma = tested on: UACC-62 melanoma
IGROV1 ovarian = tested on: IGROV1 ovarian
HS 578T breast = tested on: HS 578T breast
OVCAR-4 ovarian = tested on: OVCAR-4 ovarian
A549 NSCLC = tested on: A549 NSCLC
OVCAR-8 ovarian = tested on: OVCAR-8 ovarian
RPMI-8226 leukemia = tested on: RPMI-8226 leukemia
MOLT-4 leukemia = tested on: MOLT-4 leukemia
NCI-H460 lung = tested on: NCI-H460 lung
UO-31 renal = tested on: UO-31 renal
ACHN renal = tested on: ACHN renal
U251 CNS = tested on: U251 CNS
OVCAR-3 ovarian = tested on: OVCAR-3 ovarian
MDA-MB-231 breast = tested on: MDA-MB-231 breast
K-562 leukemia = tested on: K-562 leukemia
COLO 205 colon = tested on: COLO 205 colon
SF-539 CNS = tested on: SF-539 CNS
RXF 393 renal = tested on: RXF 393 renal
LOX IMVI melanoma = tested on: LOX IMVI melanoma
PC-3 prostate = tested on: PC-3 prostate
M14 melanoma = tested on: M14 melanoma
HOP-62 NSCLC = tested on: HOP-62 NSCLC

CN1CCC(n2cc(Nc3ncc4c(=O)n(-c5c(Cl)cccc5Cl)cc(Br)c4n3)cn2)CC1
GI50 (HL-60(TB) leukemia): 160 nM | TGI (HL-60(TB) leukemia): 853 nM | GI50 (SR leukemia): 42.5 nM | TGI (SR leukemia): 1610 nM | GI50 (T-47D breast): 887 nM | TGI (T-47D breast): 15500 nM | GI50 (MALME-3M melanoma): 796 nM | TGI (MALME-3M melanoma): 18100 nM | GI50 (NCI-H23 lung): 65.1 nM | TGI (NCI-H23 lung): 594 nM | GI50 (HCT-116 colon): 585 nM | TGI (HCT-116 colon): 10400 nM | GI50 (SK-OV-3 ovarian): 275 nM | TGI (SK-OV-3 ovarian): 13900 nM | GI50 (UACC-62 melanoma): 901 nM | TGI (UACC-62 melanoma): 22000 nM | GI50 (IGROV1 ovarian): 110 nM | TGI (IGROV1 ovarian): 7320 nM | GI50 (HS 578T breast): 538 nM | TGI (HS 578T breast): 16100 nM | GI50 (OVCAR-4 ovarian): 627 nM | TGI (OVCAR-4 ovarian): 11300 nM | GI50 (A549 NSCLC): 2320 nM | TGI (A549 NSCLC): 11500 nM | GI50 (OVCAR-8 ovarian): 268 nM | TGI (OVCAR-8 ovarian): 5020 nM | GI50 (RPMI-8226 leukemia): 1150 nM | TGI (RPMI-8226 leukemia): 10300 nM | GI50 (MOLT-4 leukemia): 64.6 nM | TGI (MOLT-4 leukemia): 4260 nM | GI50 (NCI-H460 lung): 1350 nM | TGI (NCI-H460 lung): 8910 nM | GI50 (UO-31 renal): 70.8 nM | TGI (UO-31 renal): 11500 nM | GI50 (ACHN renal): 40.2 nM | TGI (ACHN renal): 11900 nM | GI50 (U251 CNS): 787 nM | TGI (U251 CNS): 11200 nM | GI50 (OVCAR-3 ovarian): 223 nM | TGI (OVCAR-3 ovarian): 3470 nM | GI50 (MDA-MB-231 breast): 821 nM | TGI (MDA-MB-231 breast): 13400 nM | GI50 (K-562 leukemia): 178 nM | TGI (K-562 leukemia): 12500 nM | GI50 (COLO 205 colon): 1140 nM | TGI (COLO 205 colon): 8530 nM | GI50 (SF-539 CNS): 33.7 nM | TGI (SF-539 CNS): 166 nM | GI50 (RXF 393 renal): 80.8 nM | TGI (RXF 393 renal): 585 nM | GI50 (LOX IMVI melanoma): 480 nM | TGI (LOX IMVI melanoma): 2920 nM | GI50 (PC-3 prostate): 1720 nM | TGI (PC-3 prostate): 16400 nM | GI50 (M14 melanoma): 65 nM | TGI (M14 melanoma): 13400 nM | GI50 (HOP-62 NSCLC): 846 nM | TGI (HOP-62 NSCLC): 13300 nM
